# Measured values reported in patent publication US20090325978A1, “STABLE LYOPHILIZED PREPARATION” (priority 2006, published 2009).
# Experiments:
# [1] = test system: VEGF (vascular endothelial growth factor) production; conditions: low-oxygen state in vitro; cited from earlier work
# [2] = pKa of the compound represented by formula (1); type: physicochemical
# [3] = formulation study of the compound represented by formula (1): stability and crystal dissolution; type: physicochemical
# solid tumor cell = conditions: in vivo; cited from earlier work
# [4] = solubility of the compound represented by formula (1) in pH regulating solution, HPLC; type: physicochemical; conditions: thermodynamic from solid, 50 mM citric acid pH regulator with sucrose and polyethylene glycol 600, 1 hour at 5° C.
# Description: 0.525 g of citric acid monohydrate was dissolved in injection-use distilled water, and a sodium hydroxide solution was used to adjust the pH while 5 g of sucrose and 1 g of polyethylene glycol 600 (stabilizer) were dissolved, thereby preparing 50 mL of various 50 mM pH regulators (with a pH of 5.6, 5.8, 6.0, 6.2, 6.4, or 6.6) containing sucrose and the stabilizer. 3 mL of the pH regulating solution thus prepared was put into a 5 mL vial containing approximately 9 mg of the compound represented by formula (1), and this was stored for 1 hour at 5° C. while being stirred. Thereafter, the solution (including a suspension) was filtered (0.22 μm filter), the first 1 mL of the filtrate was discarded, and the solution thus obtained was subjected to high-performance liquid chromatography (HPLC) to measure the concentration of the compound represented by formula (1), which was termed the solubility of the compound represented by formula (1). The pH of the solution was also measured at the same time.
smiles,measurement,setting,value
"CCC(O)C(C)C1OC1CC(C)(O)/C=C/C=C(\C)C1OC(=O)CC(O)CCC(C)(O)C(OC(=O)N2CCN(C3CCCCCC3)CC2)/C=C/C1C (stereo not drawn) [compound represented by formula (1), (8E,12E,14E)-7-((4-cycloheptylpiperazin-1-yl)carbonyl)oxy-3,6,16,21-tetrahydroxy-6, 10,12,16,20-pentamethyl-18,19-epoxytricosa-8,12,14-trien-11-olide]",action on VEGF production,[1],suppressing VEGF (vascular endothelial growth factor) production
same,pKa,[2],~7.9
same,stability in the form of a crystalline powder,[3],good stability
same,stability in solution,[3]; formulation of an injection,not sufficiently stable
same,crystal dissolution,[3]; packed powder,slow
same,action on solid tumor cell proliferation,solid tumor cell,suppressing solid tumor cell proliferation
same,solubility at 1 h,"[4]; aqueous with cosolvent or surfactant or cyclodextrin, pH 5.79",> 2440 µg/mL
same,solubility at 1 h,"[4]; aqueous with cosolvent or surfactant or cyclodextrin, pH 5.99",> 2310 µg/mL
same,solubility at 1 h,"[4]; aqueous with cosolvent or surfactant or cyclodextrin, pH 6.51",> 2720 µg/mL
same,solubility at 1 h,"[4]; aqueous with cosolvent or surfactant or cyclodextrin, pH 6.81",2570 µg/mL
same,solubility at 1 h,"[4]; aqueous with cosolvent or surfactant or cyclodextrin, pH 7.04",1800 µg/mL
same,solubility at 1 h,"[4]; pH 6.2, aqueous with cosolvent or surfactant or cyclodextrin, pH 6.20",> 2260 µg/mL
